Measurements published in patent publication US20220380430A1, “Non-Transgenic Functional Rescue of Neuropeptides” (Worcester Polytechnic Institute, priority 2021, published 2022).
No end group written: not given here.

Columns and labels:
[1] = system: NPR-10A; experiment: In vitro GPCR activation assay (CHO-K1 cells, aequorin, human Gα16), NPR-10A; type: cell-based, C. elegans; conditions: in words
Description: (§1) Using Chinese hamster ovarian (CHO) cell cultures stably expressing the promiscuous G protein, Gα16, and the calcium reporter, aequorin, it was observed that both isoforms of NPR-10 are activated by seven of the ten FLP-3 peptides, with half-maximal effective concentrations (EC50) in the nM range (FIG. 14A-FIG. 14H, Table V). […] This peptide contains an R-to-K mutation within the C-terminal motif, which may explain the lack of receptor activation.
The GPCR activation assay was performed as previously described Van Sinay, E. et al. Proc. Natl Acad. Sci. USA 114, E4065-e4074 (2017) and Peymen, K. et al. PLoS Genet. 15, e1007945 (2019). Briefly, npr-10 and frpr-16 cDNAs were cloned into the pcDNA3.1 TOPO expression vector (Thermo Fisher Scientific). A CHO-K1 cell line (PerkinElmer, ES-000-A24) stably expressing apo-aequorin targeted to the mitochondria (mtAEQ) and human Gα16 was transiently transfected with the receptor cDNA construct or the empty pcDNA3.1 vector using Lipofectamine LTX and Plus reagent (Thermo Fisher Scientific). […] The incubated cells were then added to synthetic peptides dissolved in DMEM/BSA, and luminescence was measured for 30 s at […] using a Mithras LB940 (Berthold Technologies) or MicroBeta LumiJet luminometer (PerkinElmer). After 30 s of readout, 0.1% triton X-100 was added to lyse the cells, resulting in a maximal calcium response that was measured for 10 s. […]

[2] = target: T1, FRPR-16 (Caenorhabditis elegans, UniProt Q21957); experiment: In vitro GPCR activation assay (CHO-K1 cells, aequorin, human Gα16), FRPR-16; type: cell-based, C. elegans; conditions: calcium/aequorin luminescence in transfected CHO-K1 cells
T1 sequence (Q21957 1-340): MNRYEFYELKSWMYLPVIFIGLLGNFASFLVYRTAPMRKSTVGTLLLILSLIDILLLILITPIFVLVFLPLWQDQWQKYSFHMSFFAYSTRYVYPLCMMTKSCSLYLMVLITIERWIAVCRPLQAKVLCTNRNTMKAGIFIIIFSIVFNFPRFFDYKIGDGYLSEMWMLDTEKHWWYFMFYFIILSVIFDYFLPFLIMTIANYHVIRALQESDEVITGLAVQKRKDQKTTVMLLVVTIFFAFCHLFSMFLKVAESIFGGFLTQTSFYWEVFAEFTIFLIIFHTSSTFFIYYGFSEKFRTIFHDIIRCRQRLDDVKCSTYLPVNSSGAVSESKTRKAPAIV
Description: (§2) The GPCR activation assay was performed as previously described Van Sinay, E. et al. Proc. Natl Acad. Sci. USA 114, E4065-e4074 (2017) and Peymen, K. et al. PLoS Genet. 15, e1007945 (2019). Briefly, npr-10 and frpr-16 cDNAs were cloned into the pcDNA3.1 TOPO expression vector (Thermo Fisher Scientific). A CHO-K1 cell line (PerkinElmer, ES-000-A24) stably expressing apo-aequorin targeted to the mitochondria (mtAEQ) and human Gα16 was transiently transfected with the receptor cDNA construct or the empty pcDNA3.1 vector using Lipofectamine LTX and Plus reagent (Thermo Fisher Scientific). Cells were shifted to 28° C. one day later and allowed to incubate for 24 h. On the day of the assay, cells were collected in BSA medium (DMEM/Ham's F12 with 15 mM HEPES, without phenol red, 0.1% BSA) and loaded with […] coelenterazine h (Thermo Fisher Scientific) for 4 h at room temperature. The incubated cells were then added to synthetic peptides dissolved in DMEM/BSA, and luminescence was measured for 30 s at […] using a Mithras LB940 (Berthold Technologies) or MicroBeta LumiJet luminometer (PerkinElmer). After 30 s of readout, 0.1% triton X-100 was added to lyse the cells, resulting in a maximal calcium response that was measured for 10 s. After initial screening, concentration-response curves were constructed for HPLC-purified FLP-3 peptides by subjecting the transfected cells to each peptide in a concentration range from 1 pM to 10 μM. Cells transfected with an empty vector were used as a negative control. Assays were performed in triplicate on at least two independent days. Concentration-response curves were fitted using Prism v. 7 (nonlinear regression analysis with a sigmoidal concentration-response equation).

[3] = target: T2, NPR-10B (Caenorhabditis elegans, UniProt Q6EUU1); experiment: In vitro GPCR activation assay (CHO-K1 cells, aequorin, human Gα16), NPR-10B; type: cell-based, C. elegans; conditions: in words
T2 sequence (Q6EUU1 1-362): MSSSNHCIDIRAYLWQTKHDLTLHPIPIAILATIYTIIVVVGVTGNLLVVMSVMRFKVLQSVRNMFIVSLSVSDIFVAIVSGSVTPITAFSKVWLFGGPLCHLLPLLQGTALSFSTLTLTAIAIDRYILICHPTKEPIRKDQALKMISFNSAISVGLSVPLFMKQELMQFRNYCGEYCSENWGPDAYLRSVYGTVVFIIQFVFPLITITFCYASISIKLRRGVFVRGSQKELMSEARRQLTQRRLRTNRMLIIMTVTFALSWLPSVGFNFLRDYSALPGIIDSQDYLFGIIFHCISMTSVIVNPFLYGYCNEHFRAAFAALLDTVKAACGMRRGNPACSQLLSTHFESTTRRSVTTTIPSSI
Description: as §1, §2

[4] = system: C. elegans; experiment: Drop avoidance assay of ascr #8; type: in vivo; conditions: in words
Description: Because the defect in male response to ascr #8 was significant, and the SWAA was designed to detect attractive behaviors, it was sought to determine if flp-3 loss-of-function (lof) animals were in fact avoiding ascr #8. Using a previously described drop avoidance assay, forward moving animals were exposed to a drop of either vehicle control or ascr #8 and scored the avoidance index. […] The hermaphroditic behavior was unaffected by the loss of flp-3. (FIG. 12F).
Assays were performed as described previously in Chute, C. D. & Srinivasan, J. Semin. Cell Dev. Biol. 33, 18-24 (2014); Chute, C. D. et al. Nat. Commun. 10, 3186 (2019); and Hilliard, M. A. et al., EMBO J. 23, 1101-1111 (2004). Fifty to sixty L4 worms were segregated by sex and stored at 20° C. for 5 h to overnight to be assayed as young adults. One to four hours prior to the assay, the lids of unseeded plates were tilted to allow any excess moisture to evaporate off the plates. At the time of the assay, 10 or more animals were transferred onto each of the dried, unseeded plates. A drop of either water or 1 μM ascr #8 was placed on the tail of forward moving animals, and their response was scored as either an avoidance response, or no response. The total number of avoidances was divided by the total number of drops to generate an avoidance index for that plate. This was repeated for at least 10 plates over at least three different days.

[5] = system: C. elegans; experiment: Single worm attraction assay (SWAA) of ascarosides; type: in vivo; conditions: for dwell time in cue vs vehicle: 1 μM, in words
Description: The spot retention assay was adapted to allow for better characterization of individual worm behavior and robust interrogation of attraction to small molecules. The attractiveness of 1 μM ascr #8 (FIG. 11A) were compared across multiple strains of C. elegans (the wild-type N2 strain, the high incidence of male him-5 and him-8 strains, and the chemosensory cilia defective osm-3), using the novel behavioral assay, the single worm attraction assay (SWAA) (FIG. 11A). In this assay, individual animals were placed directly into the spot of the ascaroside cue (A) while simultaneously removing any potential of male-male contact. […] Likewise, a vehicle control (V) is also included, to account of any changes in dwell time that are driven by the components of the vehicle. The outer forty wells of a 48-well suspension culture plate (Olympus Plastics, Cat #: 25-103) were seeded with 200 μL of standard NGM agar. To prepare the plates for the assay, they were acclimated to room temperature, at which point each well was seeded with 65 μL of OP50 E. coli. The assay plates were then transferred to a 37° C. incubator with the lid tilted for 4 h to allow the bacterial culture to dry on the agar. Once the bacterial culture dried, the lid was replaced the plate was stored at 20° C. until used in the assay. Fifty to sixty L4 worms were segregated by sex and stored at 20° C. for 5 h to overnight to be assayed as young adults. 0.8 μL of either vehicle control or ascaroside #8 was placed in the center of the well corresponding to that condition within the quadrant being tested, following a random block design (FIG. 11A). A single worm was placed in each of the 10 wells to be assayed, and the plate was transferred to a light source and camera and recorded for 15 m. […] Raw dwell time values were calculated by subtracting the time a worm exited the cue (center of the well in spatial controls), from the time it entered, as in the SRA. This was determined per visit, and the average dwell time was calculated for each animal in the quadrant. Averages of the four-quadrant means were determined per plate, and a minimum of five plates were assayed per strain/condition. The mean raw dwell time across five plates was calculated and used for statistical analyses and graphical display. […] An “attractive visit” was first determined for each plate as any visit greater than two standard deviations above the mean dwell time within the vehicle control for that plate. Any individual visit meeting this threshold was scored as a “1”, and any below was scored a “0”. The percent visits per-worm that were attractive was determined, and the average of each quadrant taken. […] The average percent of attractive visits across five plates was calculated and used for statistical analyses and graphical display.

| Compound | activation of NPR-10A [1] | EC50 [2] [µM] | activation of NPR-10 (NPR-10B) [3] | avoidance of the cue ([4]; hermaphrodites) | avoidance of the cue ([4]; wild-type males, 1 μM ascr #8) | dwell time in cue vs vehicle ([5]; hermaphrodites, all strains) | dwell time in cue vs vehicle ([5]; males, wild-type and him strains) | attractive visits to the cue ([5]; males, 1 μM ascr #8) |
| --- | --- | --- | --- | --- | --- | --- | --- | --- |
| SADDSAPFGTMRF-NH2 [FLP-3-8, SADDSAPFGTMRFamide] | did not activate | 1.6 | did not activate | – | – | – | – | – |
| C[C@H](CC/C=C/C(=O)Nc1ccc(C(=O)O)cc1)O[C@@H]1O[C@@H](C)[C@H](O)C[C@H]1O [ascr #8] | – | – | – | avoid | did not avoid the cue | significantly less time in ascr #8 than the vehicle | significant increase in the amount of time spent within ascr #8 spot compared to the vehicle control | 30-45% |
